# In patent US9597292B2, “Oral dosage forms of methyl hydrogen fumarate and prodrugs thereof” (XenoPort, Inc., priority 2012, dated 2017):
# Tests used:
# Assay type in all cases: in vivo, human
# [1] = Single-dose food effect pharmacokinetic study in healthy adult subjects (Example 8); settings: promoiety after oral dosing of Example 2 formulation
# Description: (§1) Twenty-four healthy adult volunteers (males and females) participated in the study. Twelve of the subjects received a dosage form of Example 1, once in a fed condition and once in a fasted condition, with a two-week washout between treatments. Twelve other subjects received a dosage form of Example 2, once in a fed condition and once in a fasted condition, with a two-week washout between treatments. The fasted dosing was achieved by dosing the subject following an overnight fast while the fed dosing was achieved by dosing the subject after consuming a high fat-content breakfast.
# (§2) Urine samples were collected from all subjects prior to dosing, and complete urine output was obtained at the 0-4, 4-8, 8-12, 12-24, 24-36, 36-48, 48-72, 72-96 and 96-120 hour intervals after dosing. Blood samples were quenched immediately with acetonitrile and frozen.
# [2] = Single-dose food effect pharmacokinetic study of sustained release dosage form in healthy adult subjects (Example 15); settings: promoiety after oral dosing of the formulation
# Description: (§3) Twelve healthy adult volunteers (males and females) participated in the study. All twelve subjects received a dosage form of Example 9, once in a fed condition and once in a fasted condition, with a two-week washout between treatments. The fasted dosing was achieved by dosing the subject following an overnight fast while the fed dosing was achieved by dosing the subject after consuming a high fat-content breakfast.
# as §2
# [3] = Safety and tolerability, adverse events in single-dose food effect study (Example 8); settings: for Feeling Hot (subjects reporting) / Flushing (subjects reporting): 12 subjects
# Description: as §1
# [4] = Safety and tolerability, adverse events in single-dose food effect study (Example 15); settings: for Feeling Hot (subjects reporting) / Flushing (subjects reporting): 12 subjects
# Description: as §3
# [5] = single 200 mg oral dose, fed and fasted
half life of clearance from blood [1],half life of clearance from blood [2],SMILES,Feeling Hot (subjects reporting) ([3]; Fasted),Flushing (subjects reporting) ([3]; Fasted),Feeling Hot (subjects reporting) ([3]; Fed),Flushing (subjects reporting) ([3]; Fed),"tolerability during the trial [3, 5]",Feeling Hot (subjects reporting) ([4]; Fasted),Flushing (subjects reporting) ([4]; Fasted),Feeling Hot (subjects reporting) ([4]; Fed),Flushing (subjects reporting) ([4]; Fed),"tolerability during the trial [4, 5]"
around 3 hours,around 3 hours,CCN(CC)C(=O)CO [Promoiety],,,,,,,,,,
,,"CCN(CC)C(=O)COC(=O)/C=C/C(=O)OC [(N,N-Diethylcarbamoyl)methyl methyl (2E)but-2-ene-1,4-dioate]",no subjects,No subjects,no subjects,One,well tolerated,no subjects,No subjects,no subjects,Two,well tolerated
